# Data published in patent US11471469B2 (Lennham Pharmaceuticals, Inc., priority 2020, dated 2022).
# Molecular target: T1, Recombinant CYP19 (aromatase) (Homo sapiens, UniProt P11511)
# T1 sequence (P11511 1-503): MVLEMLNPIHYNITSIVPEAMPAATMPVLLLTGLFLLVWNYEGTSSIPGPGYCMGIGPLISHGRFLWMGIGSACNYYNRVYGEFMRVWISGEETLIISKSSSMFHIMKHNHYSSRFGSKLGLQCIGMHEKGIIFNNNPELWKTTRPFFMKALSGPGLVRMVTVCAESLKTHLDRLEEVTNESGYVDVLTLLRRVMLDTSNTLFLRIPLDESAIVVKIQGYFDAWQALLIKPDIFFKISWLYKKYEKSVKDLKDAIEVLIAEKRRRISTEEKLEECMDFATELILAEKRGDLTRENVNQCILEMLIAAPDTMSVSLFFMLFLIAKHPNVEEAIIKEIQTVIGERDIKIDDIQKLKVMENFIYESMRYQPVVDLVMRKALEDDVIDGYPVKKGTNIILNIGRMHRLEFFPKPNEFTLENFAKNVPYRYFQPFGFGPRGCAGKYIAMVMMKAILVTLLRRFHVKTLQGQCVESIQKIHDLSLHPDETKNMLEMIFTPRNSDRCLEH
# Assay: Metabolic stability in the presence of recombinant CYP19 (aromatase)
# Procedure: The incubation conditions used are described in Table 1.
# The analytical method used is described in Table 2.
# [1] = recombinant human CYP19, compared with testosterone
smiles,measurement,setting,value
"[2H]C([2H])([2H])[C@]12CCC(=O)C=C1CC[C@H]1[C@@H]3CC[C@H](O)[C@@]3(C)CC[C@@H]12 [Testosterone-19-d3, testosterone-19-d3]","half-life (t1/2) in aromatase, times longer than that of non-isotopically enriched testosterone","recombinant human CYP19, 0.5 μM, 4 pmol/ml or 2 μM, 10 pmol/ml, NADPH 1 mM, 0-60 min at 37° C.",4-7 times
same,clearance by aromatase,[1],more resistant to clearance by aromatase
same,metabolic stability in the presence of aromatase,[1],substantially higher stability than testosterone
